The results in this text go back to ChEMBL document CHEMBL6109180, “De Novo-Designed APC/C Inhibitors Provide a Rationale for Targeting RING-Type E3 Ubiquitin Ligases” (J Med Chem, 2025).

Data set [1] can be described thus: Drug localization in human HeLa cells assessed as punctate pattern formation at 50 uM incubated for 10 hrs by AF488 dye based analysis. Type of data set: ADME, cell-based.
For data set [2], the system named is HeLa. Kind of data set: Inhibition of recombinant APC/C/cdc20 (unknown origin) in metaphase-synchronized human HeLa cells co-expressing GST-tagged UBA1/UBE2D1/methylated ubiquitin using RD680-labeled securin as substrate at 100 uM measured after 45 mins in presence of ATP by immuno-precipitation method. Type of data set: cell-based.
In data set [3] the target is Anaphase-promoting complex subunit 11 (Homo sapiens) (UniProt Q9NYG5). The experiment in a line: Binding affinity to APC11 (unknown origin) assessed as binding free energy.
For data set [4], the system named is HeLa. Kind of data set: Inhibition of recombinant APC/C/cdc20 (unknown origin) in metaphase-synchronized human HeLa cells co-expressing GST-tagged UBA1/UBE2C/methylated ubiquitin using RD680-labeled securin as substrate at 100 uM measured after 45 mins in presence of ATP by immuno-precipitation method. It counts as cell-based.
The subject of the next data set is TERT-RPE1. Kind of data set: Effect on time length of mitosis in human RPE-1 cells at 50 uM measured for 10 to 24 hrs by bright field microscopy. It counts as functional, cell-based. The note with it: time 10-24 hrs.
For data set [5], the system named is HeLa. Kind of data set: Inhibition of recombinant APC/C/cdc20 (unknown origin) in metaphase-synchronized human HeLa cells co-expressing GST-tagged UBA1/UBE2C/methylated ubiquitin using RD680-labeled securin as substrate assessed as maximum inhibition at 100 uM measured after 15 mins in presence of ATP by immuno-precipitation method. It counts as cell-based.

Calls of active or inactive are those of the source. The calls are words filed in the database; no cut-off is given here. Numbered stars: 1 amine (or outer) side, 2 acyl side, 3 side chain; on linkers, the order of the positions; unused ones are H or OH. Bridge positions count the residues as written; N and C are the ends. Square brackets hold non-standard residues; d marks the D form. Peptide text beside a SMILES is read from it. X2 = C[C@@](CCCCC=[*:3])(N[*:1])C(=O)[*:2]; R8 = C=CCCCCCC[C@@](C)(N)C(=O)O; S5 = C=CCCC[C@](C)(N)C(=O)O; Pra = C#CC[C@H](N)C(=O)O

Anaphase-promoting complex subunit 11 (Homo sapiens), sequence (Q9NYG5 whole entry, one chain of several): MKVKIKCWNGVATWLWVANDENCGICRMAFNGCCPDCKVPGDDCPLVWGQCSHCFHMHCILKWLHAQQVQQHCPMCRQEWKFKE

`C#CC[C@H](NC(=O)[C@H](Cc1c[nH]c2ccccc12)NC(=O)[C@H](CCC(=O)O)NC(C)=O)C(=O)N[C@]1(C)CCCCCC/C=C\CCCC[C@@](C)(C(=O)N[C@@H](CCCNC(=N)N)C(=O)N[C@@H](CCCNC(=N)N)C(=O)N[C@@H](C)C(N)=O)NC(=O)[C@H](CCCNC(=N)N)NC(=O)[C@H](CCC(N)=O)NC(=O)[C@H]([C@@H](C)CC)NC(=O)[C@H](CCC(=O)O)NC(=O)[C@H](CCCCN)NC(=O)[C@H]([C@@H](C)CC)NC1=O` (Ac-EW[Pra][R8]IKEIQR[X2]RRA-NH2; staple (Z) 4-11): in data set [1], the Drug uptake result is “Active”.
Regarding `CC(=O)N[C@H]1CSSC[C@@H](C(=O)N[C@@H](CCC(=O)O)C(=O)N[C@@H](Cc2c[nH]c3ccccc23)C(=O)N[C@@H](CCCNC(=N)N)C(=O)N[C@@H](Cc2ccc(O)cc2)C(N)=O)NC(=O)[C@H](Cc2cnc[nH]2)NC(=O)[C@H](Cc2c[nH]c3ccccc23)NC(=O)[C@H](CCC(N)=O)NC(=O)[C@H](CO)NC(=O)[C@@H]2CCCN2C(=O)CNC(=O)[C@H](C)NC(=O)[C@H](CCC(=O)O)NC1=O` (Ac-CEAGPSQWHCEWRY-NH2; disulfide 1-10), the inhibition entry in the data set with HeLa [2] is “inactive”. Besides, the deltaG in data set [3] was -19.6 kcal/mol.
For `CC(=O)N[C@@H](CCCNC(=N)N)C(=O)N[C@@H](CCCNC(=N)N)C(=O)N[C@@H](CCCCN)C(=O)N[C@]1(C)CCCCCC/C=C\CCC[C@@](C)(C(=O)N[C@H](C(=O)N[C@@H](CCCNC(=N)N)C(=O)N[C@@H](Cc2ccc(O)cc2)C(N)=O)C(C)C)NC(=O)[C@H](CCCNC(=N)N)NC(=O)[C@H](C)NC(=O)[C@H](CCCNC(=N)N)NC(=O)[C@H](CCC(=O)O)NC(=O)[C@H](CCC(N)=O)NC(=O)[C@H](C)NC1=O` (Ac-RRK[R8]AQERAR[S5]VRY-NH2; staple (Z) 4-11), the inhibition entry in the data set on HeLa [4] is “inactive”.
Consider `CC(=O)N[C@H]1CSSC[C@@H](C(=O)N[C@H](C(=O)N[C@@H](Cc2c[nH]c3ccccc23)C(=O)N[C@@H](CCCNC(=N)N)C(=O)N[C@@H](Cc2ccc(O)cc2)C(N)=O)[C@@H](C)O)NC(=O)[C@H](Cc2cnc[nH]2)NC(=O)[C@H](Cc2c[nH]c3ccccc23)NC(=O)[C@H](CCC(N)=O)NC(=O)[C@H](CO)NC(=O)[C@@H]2CCCN2C(=O)CNC(=O)[C@H](C)NC(=O)[C@H](CCC(=O)O)NC1=O` (Ac-CEAGPSQWHCTWRY-NH2; disulfide 1-10), for which the inhibition entry in the data set with HeLa [2] is “inactive”. Moreover, in data set [3], the deltaG is -18.3 kcal/mol.
As for `CC(=O)N[C@@H](CCC(=O)O)C(=O)N[C@@H](Cc1c[nH]c2ccccc12)C(=O)N[C@@H](Cc1c[nH]c2ccccc12)C(=O)N[C@]1(C)CCCCCC/C=C\CCC[C@@](C)(C(=O)N[C@@H](CCCNC(=N)N)C(=O)N[C@@H](CCCNC(=N)N)C(=O)N[C@@H](C)C(N)=O)NC(=O)[C@H](CCCNC(=N)N)NC(=O)[C@H](CCC(N)=O)NC(=O)[C@H](CC(C)C)NC(=O)[C@H](CCC(=O)O)NC(=O)[C@H](CC(C)C)NC(=O)[C@H](CCCCN)NC1=O` (Ac-EWW[R8]KLELQR[S5]RRA-NH2; staple (Z) 4-11), in the data set on HeLa [4], the inhibition entry was “Active; Compound Exerted Better Inhibitory Effect Than Tame”.
As to `CC(=O)N[C@@H](CCCNC(=N)N)C(=O)N[C@@H](Cc1c[nH]c2ccccc12)C(=O)N1CCC[C@H]1C(=O)N[C@@H](CCC(N)=O)C(=O)N[C@@]1(C)CCC/C=C/CCC[C@@](C)(C(=O)N[C@@H](CCC(N)=O)C(=O)N[C@H](C(=O)N[C@@H](CCCNC(=N)N)C(=O)N[C@@H](CCCNC(=N)N)C(=O)N[C@@H](Cc2c[nH]c3ccccc23)C(N)=O)C(C)C)NC(=O)[C@H](CC(=O)O)NC(=O)[C@H](Cc2c[nH]c3ccccc23)NC(=O)[C@H](CCCCN)NC1=O` (Ac-RWPQ[S5]KWD[S5]QVRRW-NH2; staple (E) 5-9), the Activity entry with TERT-RPE1 was “No effect”. The inhibition result in the data set on HeLa [4] is “Active; Compound Exerted Better Inhibitory Effect Than Tame”.
Turning to `CC(=O)N[C@H](C(=O)N[C@@H](Cc1cnc[nH]1)C(=O)N[C@H]1CSSC[C@@H](C(=O)N[C@@H](CCC(N)=O)C(=O)N[C@@H](CCCNC(=N)N)C(=O)N[C@H](C(N)=O)C(C)C)NC(=O)[C@H](CC(N)=O)NC(=O)[C@H](Cc2c[nH]c3ccccc23)NC(=O)[C@H](CCCNC(=N)N)NC(=O)[C@H](Cc2c[nH]c3ccccc23)NC(=O)[C@H]([C@@H](C)O)NC(=O)[C@H](CCC(=O)O)NC(=O)[C@@H]2CCCN2C(=O)[C@H](CC(=O)O)NC(=O)[C@H](CC(=O)O)NC1=O)[C@@H](C)O` (Ac-THCDDPETWRWNCQRV-NH2; disulfide 3-13), the inhibition entry in the data set with HeLa [4], in the data set on HeLa [2] and in the data set on HeLa [5] was “Active” each time. For the same compound, in data set [3], the deltaG was -29.4 kcal/mol.
Turning to `C[C@@H](O)[C@H](NC(=O)[C@H](CC(=O)O)NC(=O)CN)C(=O)N[C@H]1CSSC[C@@H](C(=O)N[C@@H](CCC(N)=O)C(=O)N[C@@H](CCCNC(=N)N)C(=O)N[C@@H](Cc2cnc[nH]2)C(=O)O)NC(=O)[C@H](CC(N)=O)NC(=O)[C@H](Cc2c[nH]c3ccccc23)NC(=O)[C@H](CCCNC(=N)N)NC(=O)[C@H](Cc2c[nH]c3ccccc23)NC(=O)[C@H]([C@@H](C)O)NC(=O)[C@H](CCC(=O)O)NC(=O)[C@@H]2CCCN2C(=O)[C@H](CC(=O)O)NC(=O)[C@H](CC(=O)O)NC1=O` (H-GDTCDDPETWRWNCQRH-OH; disulfide 4-14), the inhibition result in the data set with HeLa [4] and with HeLa [2] was “Active” each time. The deltaG in data set [3] was -29.4 kcal/mol.
Consider `CC[C@H](C)[C@@H]1NC(=O)[C@@](C)(NC(=O)[C@H](CCC(N)=O)NC(=O)[C@@H]2CCCN2C(=O)[C@H](Cc2c[nH]c3ccccc23)NC(=O)[C@H](CCCNC(=N)N)NC(C)=O)CCC/C=C/CCC[C@@](C)(C(=O)N[C@@H](CCC(N)=O)C(=O)N[C@H](C(=O)N[C@@H](CCCNC(=N)N)C(=O)N[C@@H](Cc2c[nH]c3ccccc23)C(=O)N[C@@H](Cc2c[nH]c3ccccc23)C(N)=O)C(C)C)NC(=O)[C@H](CC(=O)O)NC(=O)[C@H](CCCCN)NC1=O` (Ac-RWPQ[S5]IKD[S5]QVRWW-NH2; staple (E) 5-9), for which the Activity result in the data set on TERT-RPE1 is “No effect”. Moreover, the inhibition result in the data set with HeLa [4] is “Active; Compound Exerted Better Inhibitory Effect Than Tame”.
With `CC[C@H](C)[C@@H]1NC(=O)[C@H](CCC(=O)O)NC(=O)[C@H](CC(C)C)NC(=O)[C@@H](CCCCN)NC(=O)[C@](C)(NC(=O)[C@H](Cc2c[nH]c3ccccc23)NC(=O)[C@H](Cc2c[nH]c3ccccc23)NC(=O)[C@H](CCC(=O)O)NC(C)=O)CCCCCC/C=C\CCC[C@@](C)(C(=O)N[C@@H](CCCNC(=N)N)C(=O)N[C@@H](CCCNC(=N)N)C(=O)N[C@@H](C)C(N)=O)NC(=O)[C@H](CCCNC(=N)N)NC(=O)[C@H](CCC(N)=O)NC1=O`, in the data set on TERT-RPE1, the Activity result was “No effect”. Also, the inhibition entry in the data set on HeLa [4] was “Active; Compound Exerted Better Inhibitory Effect Than Tame”.
As to `CC(=O)N[C@@H](CCCNC(=N)N)C(=O)N[C@H]1CSSC[C@@H](C(=O)N[C@@H](CCCNC(=N)N)C(N)=O)NC(=O)[C@H](Cc2c[nH]c3ccccc23)NC(=O)[C@H](Cc2ccccc2)NC(=O)[C@H]([C@@H](C)O)NC(=O)[C@H](CCC(=O)O)NC(=O)[C@@H]2CCCN2C(=O)CNC(=O)[C@H](Cc2c[nH]c3ccccc23)NC(=O)[C@H](CO)NC1=O` (Ac-RCSWGPETFWCR-NH2; disulfide 2-11), the inhibition result in the data set with HeLa [4] and with HeLa [2] was “Active” throughout. Besides, the deltaG in data set [3] is -24.2 kcal/mol.
`CC(=O)N[C@@H](CCCNC(=N)N)C(=O)N[C@H]1CSSC[C@@H](C(=O)N[C@@H](CCCNC(=N)N)C(N)=O)NC(=O)[C@H](Cc2c[nH]c3ccccc23)NC(=O)[C@H](Cc2ccccc2)NC(=O)[C@H]([C@@H](C)O)NC(=O)[C@H](CCC(=O)O)NC(=O)[C@@H]2CCCN2C(=O)CNC(=O)[C@H](Cc2c[nH]c3ccccc23)NC(=O)[C@H](Cc2cnc[nH]2)NC1=O` (Ac-RCHWGPETFWCR-NH2; disulfide 2-11): the inhibition entry in the data set on HeLa [4] and in the data set on HeLa [2] was “Active” in each case. In data set [3], the deltaG was -21.1 kcal/mol.
As to `C[C@@H](O)[C@H](NC(=O)[C@H](CCCNC(=N)N)NC(=O)[C@@H]1CSSC[C@H](NC(=O)[C@H](CCCNC(=N)N)NC(=O)CN)C(=O)N[C@@H](Cc2cnc[nH]2)C(=O)N[C@@H](Cc2c[nH]c3ccccc23)C(=O)NCC(=O)N2CCC[C@H]2C(=O)N[C@@H](CCC(=O)O)C(=O)N[C@@H]([C@@H](C)O)C(=O)N[C@@H](Cc2ccccc2)C(=O)N[C@@H](Cc2c[nH]c3ccccc23)C(=O)N1)C(=O)O` (H-GRCHWGPETFWCRT-OH; disulfide 3-12), the inhibition entry in the data set on HeLa [2] was “Active”. In data set [3], the deltaG was -19.4 kcal/mol.
For the compound `CC(=O)N[C@@H](CCCNC(=N)N)C(=O)N[C@H]1CSSC[C@@H](C(=O)N[C@@H](CCCNC(=N)N)C(N)=O)NC(=O)[C@H](Cc2c[nH]c3ccccc23)NC(=O)[C@H](Cc2ccccc2)NC(=O)[C@H]([C@@H](C)O)NC(=O)[C@H](CCCNC(=N)N)NC(=O)[C@@H]2CCCN2C(=O)CNC(=O)[C@H](Cc2c[nH]c3ccccc23)NC(=O)[C@H](Cc2cnc[nH]2)NC1=O` (Ac-RCHWGPRTFWCR-NH2; disulfide 2-11), the inhibition result in the data set on HeLa [4], in the data set with HeLa [2] and in the data set with HeLa [5] was “Active” each time. In addition, the deltaG in data set [3] is -25.6 kcal/mol.
